Values after ≈ are worked out from the molar mass of the structure shown. Like-named read-outs stand apart in the source and are kept apart here.

Data on 16 molecules can be found in article doi:10.1101/2025.08.08.668114, “Structure-Activity Relationship Studies Towards Analogues of Pleconaril as Novel Enterovirus-D68 Capsid-Targeting Antivirals” (bioRxiv, 2025).

A short description of data set [1]: Human microsomal stability. Conditions: for microsomal CLint at 2 µM: human, pH 7.4.
Data set [2] is described as follows: Mouse microsomal stability. The following applies: pH 7.4.
A short description of a further data set: in vitro. Conditions: human.
A short description of another data set: physchem. The following applies: kinetic from dmso stock.
Data set [3] has as its system P-gp (human MDR1). Nature of the data set: in vitro. The following applies: dog, MDCK-MDR1, MDCKII-MDR1 Papp A→B.
Data set [4] is described as follows: LogD at pH 7.4, shake-flask method. Conditions: for logD: pH 7.4.
Data set [5] relates to EV-D68 (strain US/MO/14-18949). The data set can be described thus: EV-D68 antiviral screening assay in RD cells.
The nature of data set [6]: Kinetic aqueous solubility (KSOL), shake-flask method.
The subject of data set [7] is MDCKII cells transfected with human MDR1 (P-gp). Conditions: dog, MDCK-MDR1.
A further data set concerns EV-D68. Conditions: in-vitro; read-out: Published EV-D68 EC50; cited from earlier work.
Data set [8] concerns human pregnane-X receptor (PXR). Also noted: method as in PMID 37327878. Conditions: cited from earlier work.
For data set [9], the system named is cytochrome P450 (CYP) enzyme. Also noted: method as in PMID 12802751. Conditions: after repeated dosing; cited from earlier work.
The subject of a further data set is RD cells. Nature of the data set: RD cell cytotoxicity by MTT assay on uninfected cells. Conditions: geometric mean.
Data set [10] has as its system P-gp (human MDR1). The data set can be described thus: MDCKII-MDR1 A→B permeability. The following applies: dog, MDCK-MDR1.
Data set [11] relates to cytochrome P450 (CYP) enzyme. Also noted: method as in PMID 37327878. The following applies: cited from earlier work.
Data set [12] relates to MDCKII cells transfected with human MDR1 (P-gp). The data set can be described thus: MDCKII-MDR1 A→B permeability. The following applies: apical to basolateral.
Where [13] appears, read: Enterovirus D, EVD68, RD, read-out: EC50 EV-D68, RD cells, strain US/MO/14-18949, geometric mean.
The mark [14] stands for this setting: Enterovirus D, EVD68, RD, read-out: EV-D68 pEC50, pEC50 = −log10(EC50) (converted), RD cells.

As for `Cc1cc(-c2noc(C(F)(F)F)n2)ccc1O[C@@H]1CCN(c2cc(C(=O)N(C)C)no2)C1` [Compound 33], the microsomal CLint at 2 µM in data set [1] (liver microsomes) was 24 µL/min/mg; in [2] (liver microsomes), 38 µL/min/mg. In addition, the CC50 in “in vitro” (RD cells, uninfected) was above 50 µM. The kinetic solubility in “physchem” is below 10 µM. This molecule came in with a Papp A→B in the data set with P-gp (human MDR1) [3] of 4 ×10⁻⁶ cm/s. The logD in data set [4] worked out at 4.2. Also, in data set [5] (setting [13]), the concentration for a half-maximal effect (EC50) worked out at 0.437 µM. For the same molecule, in data set [6], the “Solubility, Kinetic (KSOL)” value worked out at 9 µM (≈ 4.06 µg/mL).
With `Cc1cc(CCCOc2c(C)cc(-c3noc(C(F)(F)F)n3)cc2C)on1` [Compound 1, Pleconaril], the microsomal CLint at 2 µM in [1] (microsomes) stood at 12 µL/min/mg; in data set [2] (liver microsomes), 22 µL/min/mg. Further, the “MDCKII-MDR1 Papp A→B” value in data set [7] was 1.42 10^−6 cm s^−1. For the same molecule, the EC50 with EV-D68 was 0.43 µM; in data set [5] (setting [13]), below 0.0295 µM; in [5] (read-out: EC50 EV-D68, RD cells, strain US/MO/14-18949, geometric mean, listed as Pleconaril (1)) it was below 0.029 µM. Moreover, the “agonism of human PXR” value in data set [8] is reported as “Neither 1 nor 2 are agonists”. The “CYP induction (side effect)” value in data set [9] is “well-known side effect”. Further, the CC50 in the data set “in vitro” (RD cells, uninfected) is above 50 µM. Moreover, in “physchem”, the solubility (kinetic) is 18 µM (≈ 6.86 µg/mL). Also, the Papp A→B in the data set on P-gp (human MDR1) [3] was 1.4 ×10⁻⁶ cm/s. In [4], the logD was 4.2.
Turning to `CN(C)C(=O)c1cc(CCCn2ccc3cc(-c4noc(C(F)(F)F)n4)cnc32)on1` [Compound 29], the microsomal CLint at 2 µM in [1] (liver microsomes) came out at 30 µL/min/mg; in data set [2] (liver microsomes), 133 µL/min/mg. Further, the CC50 in the data set “in vitro” (RD cells, uninfected) was above 100 µM. Moreover, in “physchem”, the kinetic solubility turned out to be 28 µM (≈ 12.2 µg/mL). In the data set with P-gp (human MDR1) [3], the Papp A→B is 15.5 ×10⁻⁶ cm/s. This molecule gave a logD in [4] of 3.8. For the same molecule, in [5] (setting [13]), the EC50 came out at 1.89 µM.
Consider `Cc1cc(-c2noc(C(F)(F)F)n2)ccc1Oc1cncc(-c2cc(C(=O)N(C)C)no2)c1` [Compound 32], for which the CC50 in “in vitro” (RD cells, uninfected) is above 50 µM. For the same molecule, the EC50 in data set [5] (setting [13]) amounted to 4.35 µM.
The matching figures for `CN(C)C(=O)c1cc(-c2cccc(Oc3ccc(-c4noc(C(F)(F)F)n4)cc3)c2)on1` [Compound 31]: above 50 µM and 4.87 µM.
For `Cc1cc(-c2noc(C(F)(F)F)n2)ccc1O[C@H]1CCN(c2cc(C(=O)N(C)C)no2)C1` [Compound 34], the intrinsic clearance (microsomal CLint) at 2 µM in [1] (liver microsomes) was determined as 22 µL/min/mg; in data set [2] (liver microsomes), 41 µL/min/mg. For the same molecule, the CC50 in the data set “in vitro” (RD cells, uninfected) was above 50 µM. In “physchem”, the kinetic solubility was below 10 µM. In addition, the Papp A→B with P-gp (human MDR1) [3] is 2.5 ×10⁻⁶ cm/s. The same molecule had a logD in data set [4] of 4.2. Moreover, the half-maximal effective concentration (EC50) in data set [5] (setting [13]) was 0.058 µM; in data set [5] (setting [14]), 0.0589 µM. In addition, the “fold more potent than 33 (EV-D68)” value in data set [5] (relative to enantiomer 33) amounted to 10 fold. For the same molecule, in data set [6], the “Solubility, Kinetic (KSOL)” value came to 7 µM (≈ 3.16 µg/mL).
Molecule `Cc1cc(-c2noc(C(F)(F)F)n2)ccc1OCCCc1nnc(C(F)(F)F)o1` [Compound 38] had a CC50 in the data set “in vitro” (RD cells, uninfected) above 50 µM. Besides, the EC50 in data set [5] (Enterovirus D, EVD68, RD, read-out: EC50 EV-D68 (Table 4), RD cells, Table 4 head) was 39.9 µM.
Molecule `Cc1nc(-c2ccc(OCCCCCN3CCN(c4ccnc(N)c4)C3=O)cc2)no1` [Compound S-59, NLD-22] came in with a CC50 in the data set on RD cells above 25.6 µM.
With `CN(C)C(=O)c1cc(CCCn2ccc3cc(-c4noc(C(F)(F)F)n4)ncc32)on1` [Compound 30], the intrinsic metabolic clearance (microsomal CLint) at 2 µM in [1] (liver microsomes) turned out to be 20 µL/min/mg; in data set [2] (liver microsomes), 29 µL/min/mg. The molecule further came in with a CC50 in the data set “in vitro” (RD cells, uninfected) above 100 µM. Besides, in the data set “physchem”, the solubility (kinetic) was 30 µM (≈ 13 µg/mL). The same molecule gave a Papp A→B in the data set with P-gp (human MDR1) [3] of 3.5 ×10⁻⁶ cm/s. For the same molecule, the pH-dependent lipophilicity (logD) in [4] amounted to 3. Moreover, the EC50 in data set [5] (setting [13]) is 8.43 µM.
Take `CN(C)C(=O)c1cc(CCCn2ccc3cc(C#N)ccc32)on1` [Compound 25]: the CC50 in the data set “in vitro” (RD cells, uninfected) is above 50 µM. Further, the EC50 in data set [5] (setting [13]) stood at 2.87 µM.
Take `CCOC(=O)c1ccc(OCCC2CCN(c3ccc(C)nn3)CC2)cc1` [Compound S-58, Pirodavir, reference compound]: the microsomal CLint at 2 µM came to 708 µL/min/mg in [1] (microsomes) and 580 µL/min/mg in data set [2] (microsomes). Further, the CC50 in the data set “in vitro” was above 50 µM. The molecule further gave an apical-to-basolateral permeability (Papp A→B) with P-gp (human MDR1) [10] of 9 ×10⁻⁶ cm/s. For the same molecule, the EC50 in data set [5] (setting [13]) came to 0.277 µM.
On to `Cc1cc(-c2noc(C(F)(F)F)n2)ccc1OCCCc1cc(C(=O)N(C)C)no1` [Compound 2, CP-11526092, reference compound], for which the microsomal CLint at 2 µM in [1] (liver microsomes) is 11 µL/min/mg; in [2] (liver microsomes), 24 µL/min/mg. In addition, the “MDCKII-MDR1 Papp A→B” value in data set [7] is recorded as 2.26 10^−6 cm s^−1. Also, the EC50 in the data set with EV-D68 is 0.042 µM; in [5] (setting [13]), 0.043 µM; in [5] (setting [14]) it was 0.0437 µM. Besides, the “agonism of human PXR” value in data set [8] is on record as “Neither 1 nor 2 are agonists”. In data set [11], the “CYP induction according to in-vitro data” value is “still present”. Moreover, the CC50 is above 42 µM in “in vitro” (RD cells, uninfected) and above 50 µM with RD cells (listed as CP-11526092 (2)). In the data set “physchem”, this molecule gave a solubility (kinetic) of 9 µM (≈ 3.82 µg/mL). In the data set on P-gp (human MDR1) [3], the Papp A→B stood at 2.3 ×10⁻⁶ cm/s. The molecule further yielded a logD in [4] of at least 4.5. The “Lipophilic Cellular Efficiency (LipCellE)” value in data set [5] (cellular pEC50 − AlogP98) was above 3.
Turning to `C#CCc1ccc(OCCCc2cc(C(=O)N(C)C)no2)cc1` [Compound 55], the solubility (kinetic) in “physchem” is 198 µM (≈ 61.8 µg/mL). This molecule also gave a pH-dependent lipophilicity (logD) in data set [4] of 3.1. Also, in [5] (setting [14]), the 50% effective concentration (EC50) is 0.617 µM.
For `Cc1cc(-c2noc(C(F)(F)F)n2)ccc1OCCNc1cc(C(=O)N(C)C)no1` [Compound 24], the CC50 in the data set “in vitro” (RD cells, uninfected) is above 50 µM. The EC50 in [5] (setting [13]) is above 30.4 µM.
`CCO/N=C/c1ccc(OCCC2CCN(c3ccc(C)nn3)CC2)cc1` [Compound S-57, BTA-188] showed a CC50 with RD cells above 50 µM.
As for `Nc1nc(-c2ccccc2)nc2[nH]nc(Nc3ccc(C(F)(F)F)cc3)c12` [Compound S-60, OBR-5-340, reference compound], in data set [1] (human liver microsomes), the “Clint HLM” value was below 10 µL/min/mg. Further, the “MDCKII-MDR1 Papp A→B” value in data set [12] is listed as 1.8 10^−6 cm s^−1. Also, the “LogD (pH 7.4)” value in data set [4] (pH 7.4, shake-flask) is at least 4.5. The EC50 in data set [5] (read-out: EC50 EV-D68, RD cells, strain US/MO/14-18949, geometric mean) worked out at 7.16 µM. In the data set with RD cells, this molecule gave a CC50 above 50 µM. The “Solubility, Kinetic (KSOL)” value in data set [6] stood at 2 µM (≈ 0.741 µg/mL).

For orientation: microsomal CLint means the rate of metabolic loss divided by the concentration. A higher microsomal CLint goes with rapid turnover. What is called kinetic solubility is solubility judged after dilution from a stock solution rather than from solid. A word on the Papp A→B: it is how fast a substance crosses the layer from the apical side. The low end stands for poor permeation, the high end for ready permeation. For orientation: logD means lipophilicity at a set pH, counting ionised and neutral species. Broadly, the EC50 is the concentration that produces a half-maximal response.
